Reference: patent US20150105252A1, “SUBSTITUTED PYRAZOLES AS HERBICIDES” (E I DU PONT DE NEMOURS AND COMPANY, priority 2013, published 2015)

Tests used:
barnyardgrass [1] = test: Test A postemergence; assay type: in vivo, Echinochloa crus-galli; conditions: Postemergence, 1000 g ai/ha; visual rating after approx. 10 days, 0 to 100 scale (0 no effect, 100 complete control)
Outline: (§1)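 Greenhouse test in loam soil/sand blend; compounds formulated in non-phytotoxic solvent with surfactant, applied as preemergence directed soil spray or postemergence to plants 2–10 cm tall at one- to two-leaf stage. Injury rated visually versus untreated controls after approximately 10 days on a 0 (no effect) to 100 (complete control) scale.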

morningglory [2] = test: Test A preemergence; assay type: in vivo, Ipomoea spp.; conditions: Preemergence, 1000 g ai/ha; 0 to 100 scale, 0 no effect, 100 complete control
Outline: as §1

crabgrass, large [3] = test: Test A preemergence; assay type: in vivo, Digitaria sanguinalis; conditions: Preemergence, 1000 g ai/ha; 0 to 100 scale, 0 no effect, 100 complete control
Outline: as §1

foxtail, giant [4] = test: Test A preemergence; assay type: in vivo, Setaria faberii; conditions: Preemergence, 1000 g ai/ha; 0 to 100 scale, 0 no effect, 100 complete control
Outline: as §1

corn [5] = test: Test A preemergence; assay type: in vivo, Zea mays; conditions: Preemergence, 1000 g ai/ha; 0 to 100 scale, 0 no effect, 100 complete control
Outline: as §1

wheat [6] = test: Test A postemergence; assay type: in vivo, Triticum aestivum; conditions: Postemergence, 1000 g ai/ha; visual rating after approx. 10 days, 0 to 100 scale (0 no effect, 100 complete control)
Outline: as §1

wheat [7] = test: Test A preemergence; assay type: in vivo, Triticum aestivum
Outline: as §1

foxtail, giant [8] = test: Test A postemergence; assay type: in vivo, Setaria faberii; conditions: Postemergence, 1000 g ai/ha; visual rating after approx. 10 days, 0 to 100 scale (0 no effect, 100 complete control)
Outline: as §1

velvetleaf [9] = test: Test A preemergence; assay type: in vivo, Abutilon theophrasti; conditions: Preemergence, 1000 g ai/ha; 0 to 100 scale, 0 no effect, 100 complete control
Outline: as §1

velvetleaf [10] = test: Test A postemergence; assay type: in vivo, Abutilon theophrasti; conditions: Postemergence, 1000 g ai/ha; visual rating after approx. 10 days, 0 to 100 scale (0 no effect, 100 complete control)
Outline: as §1

pigweed [11] = test: Test A postemergence; assay type: in vivo, Amaranthus retroflexus; conditions: Postemergence, 1000 g ai/ha; visual rating after approx. 10 days, 0 to 100 scale (0 no effect, 100 complete control)
Outline: as §1

pigweed [12] = test: Test A preemergence; assay type: in vivo, Amaranthus retroflexus; conditions: Preemergence, 1000 g ai/ha; 0 to 100 scale, 0 no effect, 100 complete control
Outline: as §1

barnyardgrass [13] = test: Test A preemergence; assay type: in vivo, Echinochloa crus-galli; conditions: Preemergence, 1000 g ai/ha; 0 to 100 scale, 0 no effect, 100 complete control
Outline: as §1

corn [14] = test: Test A postemergence; assay type: in vivo, Zea mays; conditions: Postemergence, 1000 g ai/ha; visual rating after approx. 10 days, 0 to 100 scale (0 no effect, 100 complete control)
Outline: as §1

crabgrass, large [15] = test: Test A postemergence; assay type: in vivo, Digitaria sanguinalis; conditions: Postemergence, 1000 g ai/ha; visual rating after approx. 10 days, 0 to 100 scale (0 no effect, 100 complete control)
Outline: as §1

morningglory [16] = test: Test A postemergence; assay type: in vivo, Ipomoea spp.; conditions: Postemergence, 1000 g ai/ha; visual rating after approx. 10 days, 0 to 100 scale (0 no effect, 100 complete control)
Outline: as §1

[17] = Preemergence, 1000 g ai/ha, 0 to 100 scale, 0 no effect, 100 complete control
[18] = preemergence, 500 g ai/ha, visual injury after approx. 10 days, 0 to 100 scale (0 no effect, 100 complete control)

Row | SMILES | Barnyardgrass plant response rating (barnyardgrass [1]) | Morningglory plant response rating (morningglory [2]) | Crabgrass, Large plant response rating (crabgrass, large [3]) | Foxtail, Giant plant response rating (foxtail, giant [4]) | Corn plant response rating (corn [5]) | Wheat plant response rating (wheat [6]) | Wheat plant response rating (wheat [7]; [17]) | Foxtail, Giant plant response rating (foxtail, giant [8]) | Velvetleaf plant response rating (velvetleaf [9]) | Velvetleaf plant response rating (velvetleaf [10]) | Pigweed plant response rating (pigweed [11]) | Pigweed plant response rating (pigweed [12]) | Barnyardgrass plant response rating (barnyardgrass [13]) | Corn plant response rating (corn [14]) | Crabgrass, Large plant response rating (crabgrass, large [15]) | Morningglory plant response rating (morningglory [16]) | Wheat plant response rating (wheat [7]; [18])
1 | CCc1cc(C(=O)N(C)C)nn1Cc1cccc(OC(F)(F)F)c1 [Compound 56] | 0 | 0 | 0 | 10 | 0 | 0 | 0 | 20 | 0 | 10 | 60 | 0 | 0 | 10 | 10 | 70 | –
2 | CCc1cc(C(=O)NCCOC)nn1Cc1cccc(OC(F)(F)F)c1 [Compound 57] | 10 | 10 | 20 | 90 | 0 | 0 | 0 | 10 | 0 | 30 | 50 | 10 | 10 | 40 | 10 | 60 | 0
3 | CCCCNC(=O)c1cc(CC)n(Cc2cccc(OC(F)(F)F)c2)n1 [Compound 62] | 10 | 20 | 40 | 60 | 0 | 20 | 0 | 30 | 10 | 70 | 70 | 20 | 10 | 50 | 20 | 80 | 0
4 | CCCCN(C)C(=O)c1cc(CC)n(Cc2cccc(OC(F)(F)F)c2)n1 [Compound 63] | 0 | 0 | 0 | 0 | 0 | 10 | 0 | 20 | 0 | 30 | 70 | 0 | 0 | 20 | 10 | 60 | 0
